Data taken from PubChem BioAssay (NCI).
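Following 48 hours of exposure in 96-well plates, responses at five concentrations were used to interpolate endpoints linearly. The concentration for full growth arrest is given as TGI.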

What was measured:
Assay in all cases: inhibition of tumour cell growth, NCI panel, 48 h
[1] = tested on: 786-0 renal
[2] = tested on: A549 NSCLC
[3] = tested on: ACHN renal
[4] = tested on: BT-549 breast
[5] = tested on: CAKI-1 renal
[6] = tested on: COLO 205 colon
[7] = tested on: DU-145 prostate
[8] = tested on: EKVX NSCLC
[9] = tested on: HCC-2998 colon
[10] = tested on: HCT-116 colon
[11] = tested on: HCT-15 colon
[12] = tested on: HOP-62 NSCLC
[13] = tested on: HS 578T breast
[14] = tested on: HT29 colon
[15] = tested on: IGROV1 ovarian
[16] = tested on: K-562 leukemia
[17] = tested on: KM12 colon
[18] = tested on: LOX IMVI melanoma
[19] = tested on: M14 melanoma
[20] = tested on: MALME-3M melanoma
[21] = tested on: MCF7 breast
[22] = tested on: MDA-MB-231 breast
[23] = tested on: MDA-MB-435
[24] = tested on: MDA-N
[25] = tested on: MOLT-4 leukemia
[26] = tested on: NCI-H226 lung
[27] = tested on: NCI-H23 lung
[28] = tested on: NCI-H460 lung
[29] = tested on: NCI/ADR-RES ovarian
[30] = tested on: OVCAR-3 ovarian
[31] = tested on: OVCAR-4 ovarian
[32] = tested on: OVCAR-5 ovarian
[33] = tested on: OVCAR-8 ovarian
[34] = tested on: PC-3 prostate
[35] = tested on: RPMI-8226 leukemia
[36] = tested on: SF-268 CNS
[37] = tested on: SF-295 CNS
[38] = tested on: SF-539 CNS
[39] = tested on: SK-MEL-2 melanoma
[40] = tested on: SK-MEL-28 melanoma
[41] = tested on: SK-MEL-5 melanoma
[42] = tested on: SK-OV-3 ovarian
[43] = tested on: SN12C renal
[44] = tested on: SNB-19 CNS
[45] = tested on: SNB-75 CNS
[46] = tested on: SR leukemia
[47] = tested on: SW-620 colon
[48] = tested on: T-47D breast
[49] = tested on: TK-10 renal
[50] = tested on: U251 CNS
[51] = tested on: UACC-257 melanoma
[52] = tested on: UACC-62 melanoma
[53] = tested on: UO-31 renal
[54] = tested on: A498 renal
[55] = tested on: CCRF-CEM leukemia
[56] = tested on: HOP-92 NSCLC
[57] = tested on: NCI-H522 lung
[58] = tested on: RXF 393 renal

With `C[n+]1c2ccccc2c(C(=O)Nc2ccc(S(=O)(=O)Nc3ncccn3)cc2)c2ccccc21` the TGI [1] was > 100 µM, the TGI [2] was > 100 µM and the TGI [3] was > 100 µM. For the same compound, the TGI [4] was > 100 µM, the TGI [5] was > 100 µM and the TGI [6] was > 100 µM. For the same compound, the TGI [7] was > 100 µM, the TGI [8] was > 100 µM and the TGI [9] was > 100 µM. For the same compound, the TGI [10] was > 100 µM, the TGI [11] was > 100 µM and the TGI [12] was > 100 µM. For the same compound, the TGI [13] was > 100 µM, the TGI [14] was > 100 µM and the TGI [15] was > 100 µM. The TGI [16] was > 100 µM, the TGI [17] was > 100 µM and the TGI [18] was > 100 µM. The TGI [19] was > 100 µM, the TGI [20] was > 100 µM and the TGI [21] was > 100 µM. For the same compound, the TGI [22] was > 100 µM, the TGI [23] was > 100 µM and the TGI [24] was > 100 µM. For the same compound, the TGI [25] was > 100 µM, the TGI [26] was > 100 µM and the TGI [27] was > 100 µM. For the same compound, the TGI [28] was > 100 µM, the TGI [29] was > 100 µM and the TGI [30] was > 100 µM. For the same compound, the TGI [31] was > 100 µM, the TGI [32] was > 100 µM and the TGI [33] was > 100 µM. For the same compound, the TGI [34] was > 100 µM, the TGI [35] was > 100 µM and the TGI [36] was > 100 µM. The TGI [37] was > 100 µM, the TGI [38] was > 100 µM and the TGI [39] was > 100 µM. For the same compound, the TGI [40] was > 100 µM, the TGI [41] was > 100 µM and the TGI [42] was > 100 µM. The TGI [43] was > 100 µM, the TGI [44] was > 100 µM and the TGI [45] was > 100 µM. The TGI [46] was > 100 µM, the TGI [47] was > 100 µM and the TGI [48] was > 100 µM. For the same compound, the TGI [49] was > 100 µM, the TGI [50] was > 100 µM and the TGI [51] was > 100 µM. The TGI [52] was > 100 µM and the TGI [53] was > 100 µM.

With `Cn1c(=O)c2c(nc(N/N=C3/SCC(=O)N3Cc3ccccc3)n2C)n(C)c1=O` the TGI [1] was > 100 µM, the TGI [54] was > 100 µM and the TGI [2] was > 100 µM. The TGI [3] was > 100 µM, the TGI [4] was > 100 µM and the TGI [5] was > 100 µM. The TGI [55] was > 100 µM, the TGI [6] was > 100 µM and the TGI [7] was > 100 µM. For the same compound, the TGI [8] was > 100 µM, the TGI [9] was > 100 µM and the TGI [10] was > 100 µM. For the same compound, the TGI [11] was > 100 µM, the TGI [12] was > 100 µM and the TGI [56] was 78.7 µM. The TGI [13] was > 100 µM, the TGI [14] was > 100 µM and the TGI [15] was > 100 µM. The TGI [16] was > 100 µM, the TGI [17] was > 100 µM and the TGI [19] was > 100 µM. For the same compound, the TGI [20] was > 100 µM, the TGI [21] was > 100 µM and the TGI [22] was > 100 µM. For the same compound, the TGI [23] was > 100 µM, the TGI [24] was > 100 µM and the TGI [26] was > 100 µM. For the same compound, the TGI [27] was > 100 µM, the TGI [28] was > 100 µM and the TGI [57] was > 100 µM. The TGI [29] was > 100 µM, the TGI [30] was 90.4 µM and the TGI [31] was > 100 µM. The TGI [32] was > 100 µM, the TGI [33] was > 100 µM and the TGI [34] was > 100 µM. For the same compound, the TGI [35] was 66.3 µM, the TGI [58] was > 100 µM and the TGI [36] was > 100 µM. The TGI [37] was > 100 µM, the TGI [38] was > 100 µM and the TGI [39] was > 100 µM. The TGI [40] was > 100 µM, the TGI [41] was > 100 µM and the TGI [42] was > 100 µM. For the same compound, the TGI [43] was > 100 µM, the TGI [44] was > 100 µM and the TGI [48] was > 100 µM. For the same compound, the TGI [49] was > 100 µM, the TGI [50] was > 100 µM and the TGI [51] was > 100 µM. For the same compound, the TGI [52] was > 100 µM and the TGI [53] was > 100 µM.
